Assays:
[1] = tested on: patients with subfoveal choroidal neovascularization (CNV) secondary to AMD; test: Clinical trial: best-corrected log MAR visual acuity after single posterior juxtascleral administration; type: in vivo
Excerpt: (§1) This ongoing trial was initiated to compare the clinical efficacy of anecortave acetate versus placebo treatment for preservation (maintenance) of vision and inhibition of CNV lesion growth. Patients with a log MAR visual acuity of 0.3 (20/40 Snellen equivalent) to 1.2 (20/320 Snellen equivalent) and primary or recurrent subfoveal choroidal neovascularization (CNV) secondary to AMD with a lesion up to 30.48 mm^2 (12 disc areas) in size were enrolled. At Baseline and follow-up visits, best-corrected log MAR visual acuity was obtained on all patients using guidelines previously established for the Early Treatment Diabetic Retinopathy Study. Patient lesion eligibility for this study was determined from standardized fluorescein angiograms at the Digital Angiography Reading Center (DARC) by certified Readers (trained retina specialists) prior to enrollment and treatment. The DARC also evaluated changes from Baseline in the fluorescein angiographic characteristics of the lesions in masked fashion. Each data point represents the average of at least two independent evaluations by DARC Readers. Because all angiographic data for this study is being collected using the same fundus camera and digital camera systems and stored as uncompressed digital images, the actual lesion surface areas can be more closely approximated in mm^2 rather than requiring the disc area “best-fit” estimates previously used for film angiographic data.
The 128 patients in this double-masked, dose-response study were enrolled and treated between April 1999 and May 2001 by 18 participating sites in the US and EU. Prior to treatment, patients were enrolled and equally randomized to anecortave acetate sterile suspension for injection 30 mg (N=33), 15 mg (N=33), or 3 mg (N=32) or to placebo (vehicle, N=30). Masking of the clinical sites as to treatment group is being maintained in two ways. Study medication is masked by placing the treatment kits including study medication and supplies for the posterior juxtascleral administration in sealed opaque boxes identified by patient number only. The boxes were numbered sequentially at each clinical site and patients were assigned the next available sequential number upon enrollment. The randomization was built into the sequential numbering of the treatment kits and blocked within each site to maintain equal distribution across treatment assignments. Masking as to treatment group is also being maintained at each site by having an unmasked injecting investigator perform the treatments and a masked examining investigator perform the subsequent evaluations. Upon enrollment of each patient, anecortave acetate or placebo was administered behind the eye as a 0.5 mL posterior juxtascleral injection onto the outer surface of the sclera near the macula using a specially designed cannula. The cannula is described in commonly owned U.S. Pat. No. 6,413,245B 1.
Clinical efficacy data is being obtained from evaluations of best-corrected log MAR visual acuity and standardized fluorescein angiograms. Clinical safety data obtained from general physical examinations, laboratory evaluations of blood and urine, and complete ophthalmic examinations, including indocyanine green angiography, continue to be periodically evaluated by the Independent Safety Committee overseeing this study. Clinical data from evaluations for safety and efficacy performed at Day 1-2, Week 2, Week 6, Month 3, and Month 6 following patient randomization and treatment are reported here. […]

[2] = tested on: subfoveal CNV lesion secondary to AMD; test: Clinical trial: CNV lesion surface area change by standardized fluorescein angiograms (DARC); type: in vivo, patients; settings: for inhibition of lesion growth, comparison with placebo: Month 6
Excerpt: as §1
The primary efficacy outcome for this ongoing study is the mean change from Baseline in best-corrected log MAR visual acuity. Secondary efficacy outcomes are: the percentage of patients with preservation or maintenance of vision (defined as loss of less than three log MAR lines [less than 15 log MAR letters] of visual acuity); the percentage of patients with clinically significant worsening of vision (defined as a loss of at least three log MAR lines [at least 15 log MAR letters] of visual acuity); the percentage of patients with severe vision loss (defined as a loss of at least six log MAR lines [at least 30 log MAR letters] of visual acuity); and changes in CNV lesion characteristics (defined as total lesion area, total CNV and total classic CNV).
All efficacy analyses were based on the intent-to-treat principle. All patients received the medication to which they were assigned, and were analyzed accordingly. Last-observation-carry-forward was used to impute missing values. Baseline comparisons were tested using analysis of variance (for continuous outcomes) and Pearson's chi square (for binary outcomes). Changes from baseline in visual acuity and lesion parameters were tested in a repeated measures analysis of variance model with appropriate contrasts for the 6-month comparisons. Comparisons of binary outcomes at Month 6 were evaluated using Pearson's chi-square tests. All analyses of ocular outcomes are based on changes in the study (i.e., treated) eye.
Total lesion areas, total CNV areas, and total classic CNV areas were measured and compared among treatment groups.

[3] = tested on: patients with exudative AMD; test: Clinical trial: clinical safety evaluation (Independent Safety Committee); type: in vivo
Excerpt: Clinical efficacy data is being obtained from evaluations of best-corrected log MAR visual acuity and standardized fluorescein angiograms. Clinical safety data obtained from general physical examinations, laboratory evaluations of blood and urine, and complete ophthalmic examinations, including indocyanine green angiography, continue to be periodically evaluated by the Independent Safety Committee overseeing this study. Clinical data from evaluations for safety and efficacy performed at Day 1-2, Week 2, Week 6, Month 3, and Month 6 following patient randomization and treatment are reported here.
Following completion of the Month 6 visit by all patients, the accumulated safety data were evaluated by the Independent Safety Committee overseeing this study. […] The most common ocular changes reported were changes in lens opacity using the Lens Opacity Classification System (LOCS) II, and included reports of nuclear color, nuclear opalescence, cortical, and posterior subcapsular changes. Cataracts are a common intercurrent disorder in this patient population, and the changes seen were documented in all treatment groups and in contralateral (untreated) eyes. The cataractous changes reported were described as mild and typically unrelated to treatment. The second most common ocular change, a decrease in vision (defined as a decrease of ≧4 log MAR lines from the previous visit), is also a common problem in this patient population. These vision decreases occurred in all treatment groups and in the contralateral eye. Other ocular changes (occurring with a frequency greater than 5%) were ptosis, ocular pain, subconjunctival hemorrhage, ocular pruritis, ocular burning/stinging, pupil disorders, foreign body sensation, ocular hyperemia, and abnormal vision. These changes were reported in all four treatment groups, in both treated eyes and contralateral eyes, were characterized as primarily mild, were generally not attributed to treatment, and were transient in nature. The single report of an IOP increase (≧10 mmHg) from Baseline occurred in a patient treated with anecortave acetate 30 mg and was attributed to intercurrent illness. Of the ocular changes reported, those most frequently attributed to study treatment were ptosis, ocular pain, subconjunctival hemorrhage, ocular pruritis, and ocular burning/stinging. These treatment-related events were mostly mild, transient, and seen within all four treatment groups.

CC(=O)OCC(=O)[C@@]1(O)CC[C@H]2[C@@H]3CCC4=CC(=O)CC[C@]4(C)C3=CC[C@@]21C [anecortave acetate, 4,9(11)-pregnadien-17α,21-diol-3,20 dione-21 acetate]
mean change at Month 6 from Baseline in log MAR visual acuity, comparison with placebo ([1]; 3 mg): Trends also favor treatment | percentage of patients with preservation of vision (decrease of less than three log MAR lines) ([1]; 15 mg, Month 6, all patients): 88% | percentage of patients with preservation of vision (decrease of less than three log MAR lines) ([1]; 15 mg, Month 6, subgroup with predominantly classic CNV lesion, p=0.0209 vs placebo): 92% | mean change at Month 6 from Baseline in log MAR visual acuity, comparison with placebo ([1]; 15 mg, p=0.0032): statistically superior to placebo treatment | mean change at Month 6 from Baseline in log MAR visual acuity, comparison with placebo ([1]; 30 mg): Trends also favor treatment | inhibition of lesion growth, comparison with placebo ([2]; 3 mg): trend favoring | inhibition of total CNV surface area (percent change from Baseline), comparison with placebo ([2]; 15 mg, Month 6, p=0.0001): statistically superior to placebo treatment | inhibition of total lesion surface area (percent change from Baseline), comparison with placebo ([2]; 15 mg, Month 6, p=0.0005): statistically superior to placebo treatment | inhibition of total classic CNV surface area (percent change from Baseline), comparison with placebo ([2]; 15 mg, Month 6, p=0.0008): statistically superior to placebo treatment | inhibition of lesion growth, comparison with placebo ([2]; 30 mg): trend favoring | reports of IOP increase (≧10 mmHg) from Baseline ([3]; 30 mg): single report | changes in blood chemistry, hematology, or urinalysis ([3]; all doses): No treatment-related changes | safety concerns identified by the Independent Safety Committee ([3]; all doses, after Month 6 visit): no clinically relevant medication-related or administration-related safety concerns were identified | ocular corticosteroid side effects (elevated intraocular pressure, accelerated cataract progression) ([3]; clinical study, at least 6 months exposure): no clinical evidence
